The source of these data is PMC5570892, “Indole-based perenosins as highly potent HCl transporters and potential anti-cancer agents” (Scientific Reports, 2017).

One test has as its system MDA-MB-231 cells. The test can be described thus: MTT cell viability assay. The following applies: Homo sapiens, error from three repeats in brackets. Type of test: cell-based. Here is the method:
Herein, we carried out further in vitro studies at the University of Barcelona for the full library of perenosins. Single dose screening for cell viability using the methylthiazoletetrazolium (MTT) colorimetric assay over five different cell lines (cancer cells MCF-7, MDA-MB-231, A549 and SW620, and non-cancerous human cells MCF-10A) was conducted.
While perenosin 5, with pentyl substituent at R3, has similar cell viability effects as 1d, bis-indole perenosin 7 with pentyl substituent at R1 has a moderate degree of late onset by a factor of 7.
S11.1 Cell Lines and Culture Conditions
The human cell lines were obtained from the American Type Culture Collection (ATCC, Manassas VA). Breast adenocarcinoma MDA-MB-231 and MCF-7 cells were maintained in DMEM:F12 media (1:1; Biological Industries, Beit Haemek, Israel), and 10 µg/ml insulin and 50 µM sodium pyruvate from Sigma-Aldrich Chemical Co. (St. Louis, MO) were added to MCF-7 cells. Lung adenocarcinoma A549 and colorectal adenocarcinoma SW620 cells were cultured in DMEM media. All were supplemented with 10% foetal bovine serum (FBS; Invitrogen-Life Technologies, Carlsbad, CA) and 100 U/mL penicillin, 100 µg/mL streptomycin and 2 mM L-glutamine, all from Biological Industries.
Mammary epithelial MCF-10A cells were maintained in DMEM:F12 media supplemented with 5% horse serum (Life Technologies), 20 ng/ml EGF, 0.5 µg/ml Hydrocortisone, 100 ng/ml Cholera toxin, 10 µg/ml insulin all from Sigma-Aldrich and 100 U/ml penicillin, 100 µg/ml streptomycin, and 2 mM L- glutamine (Biological Industries). Cells were grown at 37 °C under a 5% CO2 atmosphere.
S11.2 Cell Viability Assays
Cell viability was evaluated using the methylthiazoletetrazolium (MTT) colorimetric assay. Cancer cells (MCF-7, MDA-MB-231, A549 and SW620) or non-cancerous human cells MCF-10A cells were harvested (10^4 cells/well) in 96-well plates in a final volume of 100 µl and allowed to grow overnight.
After 24 h, vehicle solution (DMSO) or experimental compounds were added at 10 µM (single point experiment) or at different ranging concentrations (0.8-100 µM) to the assay plate and were incubated for 24 or 72 h. Then, 10 µl of MTT (5 mg/ml; Sigma-Aldrich) were added and the plates were incubated for 4 h at 37°C. 100 µl of DMSO (Sigma-Aldrich) were added to dissolve crystals and the reading was taken spectrophotometrically at 570 nm using a multi-well plate reader (Multiskan FC, Thermo Scientific, Waltham, MA, USA). Cell viability and inhibitory concentration (IC) values were obtained using GraphPad Prism v5.0 (Graphpad Software, San Diego, CA, USA). All data are shown as the mean value ± standard deviation (S.D.) of three independent experiments.

The nature of test [1]: HPTS assay with TBAOH (electrogenic H+ or OH- transport). Type of test: biochemical. The note with it: sodium gluconate vesicles, pH 7.0; CCCP at 0.1 mol%; perenosins at loading giving 100% in NMDG-Cl assay. As for the experimental part: S10.8. General Procedure for the HPTS Assay
Unilamellar vesicles were prepared using previously reported literature procedures16. A lipid film of POPC (1-palmitoyl-2-oleoyl-sn-glycero-3-phosphocholine) was prepared from a chloroform solution under reduced pressure and then dried under vacuum for 4 or more hours. The lipid film was rehydrated by vortexing with an internal solution containing HPTS (1 mM). The lipid suspension was then subjected to 9 freeze-thaw cycles and left to rest at room temperature for 30 minutes. After this, the suspension was extruded 25 times through a 200 nm polycarbonate membrane resulting in unilamellar vesicles of a mean diameter of 200 nm. The un-encapsulated HPTS was removed by size exclusion chromatography using a sephadex G-25 column and an external solution eluent that does not contain HPTS. […]
After 200 s, detergent (50 μL of Triton X-100 (11 w%) in H2O:DMSO (7:1 v/v)) was added to lyse the vesicles and after 5 mins a final reading was taken. […]
The fractional fluorescence intensity (If) was calculated using: […]
where Rt is the fluorescence ratio at time t, R0 is the fluorescence ratio at time 0 and Rd is the fluorescence ratio at the end of the experiment, after the addition of detergent. […]

Where [2] appears, read: MDA-MB-231, 24 h exposure, read-out: IC50 (24 h).
The mark [3] stands for this setting: MDA-MB-231, 72 h exposure, read-out: IC50 (72 h).

pIC50: −log10 of the molar value. Like-named read-outs stand apart in the source and are kept apart here.

Turning to `Cc1cc(/N=C/c2[nH]c(C)cc2C)c2[nH]ccc2c1` [Perenosin 1c], the negative-log IC50 (pIC50) with MDA-MB-231 cells (setting [2]) was 4.46; in the test on MDA-MB-231 cells (setting [3]), 4.69.
For `COc1cc(/N=C/c2[nH]c(C)cc2C)c2[nH]ccc2c1` [Perenosin 1e] the same measures were 4.42 and 4.49.
The matching figures for `Cc1cc(C)c(/C=N/c2cc(C(F)(F)F)cc3cc[nH]c23)[nH]1` [Perenosin 1b]: 4.49 and 4.66.
As to `N#CC(C#N)=NNc1cccc(Cl)c1` [CCCP], the “H+ or OH- transport (TBAOH base pulse)” value in test [1] is reported as 100%.
As for `Cc1cc(C)c(/C=N/c2cccc3cc[nH]c23)[nH]1` [Perenosin 1a], the figures for the pIC50 in the test on MDA-MB-231 cells (setting [2]) and in the test with MDA-MB-231 cells (setting [3]) were 4.42 and 4.61, respectively.
